Square brackets hold non-standard residues; d marks the D form. Ends that are not written are not given here.
Assays:
BRIN-BD11 cells = test: In vitro insulin secretion in BRIN-BD11 cells (radioimmunoassay); assay type: cell-based, rat; settings: 5.6 mM glucose; for insulin secretion compared to glucose alone, FIG. 1b experiment: P<0.05 to P<0.001
Protocol: BRIN-BD11 cells (ECACC accession number 100330033) were cultured in RPMI 1640 tissue culture medium containing 10% (v/v) foetal calf serum, 1% (v/v) antibiotics (100 U/ml of penicillin and 0.1 mg/ml of streptomycin). BRIN-BD11 cells were originally derived by means of electrofusion of a New England Deaconess Hospital (NEDH) rat pancreatic beta-cell line with an RINm5F cell line in order to produce an immortal, glucose sensitive, insulin secreting cell line (McClenaghan etal., Diabetes. 1996 August; 45(8):1132-40). All cells were maintained in sterile tissue culture flasks (Corning Glass Works, Corning, N.Y., USA) at 37° C. in an atmosphere of 5% CO2 and 95% air, using an LEEC incubator (Laboratory Technical Engineering, Nottingham, UK).
BRIN-BD11 cells were seeded into 24-well plates at a density of 1×10^5 cells and allowed to attach to the wells overnight in an incubator. Before acute studies of insulin were carried out, the cells underwent a 40 min preincubation period at 37° C. with 1.0 ml of Krebs Ringer bicarbonate buffer (115 mM NaCl, 4.7 mM KCl, 1.28 mM CaCl2.2H2O, 1.2 mM KH2PO4, 1.2 mM MgSO4.7H2O, 10 mM NaHCO3, 5 g/l bovine serum albumin (BSA), pH 7.4) supplemented with 1.1 mM glucose. […] The incubations were performed for 20 min at 37° C., after which the buffer solution was removed and 2×200 μl aliquots stored at −20° C. until measurement of insulin levels by radioimmunoassay (RIA).

high fat fed mice = test: Acute glucose homeostasis and insulin secretion in high fat fed mice; assay type: in vivo; settings: 25 nmol/kg i.p. with glucose 18 mmol/kg
Protocol: (§1) NIH Swiss male mice (6 weeks old) were housed in an air conditioned room 22±2° C. with a 12 h light: 12 h dark cycle. Animals were maintained on a high fat diet 16 weeks prior to commencement and throughout the study. Drinking water and high fat diet was freely available. All animal studies were performed in accordance with the UK Animals (Scientific Procedures) Act 1986 under project licences held by the inventor.
Freely fed animals were divided into weight-matched groups (n=8) and administered, by intraperitoneal injection, glucose alone (18 mmol/kg body weight) or glucose in combination with each peptide (25 nmol/kg body weight). Blood samples were collected immediately prior to (t=0) and 15, 30 and 60 min post-injection. Whole blood was used to measure glucose values using an Acensia CONTOUR Microfill Blood Glucose Meter and Acensia MICROFILL test strips (Bayer Healthcare, UK). Blood samples for measurement of insulin was collected into fluorine/heparin microcentrifuge tubes (Sarstedt, Numbercht, Germany) at times indicated above and immediately centrifuged using a Beckman microcentrifuge (Beckman Instruments, UK) for 5 min at 13,000 g. Plasma was then aliquoted and stored at −20° C. prior to insulin determination by RIA.

high-fat fed mice = test: Persistent glucose-lowering in high-fat fed mice, peptide given 4 hours before glucose load; assay type: in vivo; settings: 25 nmol/kg i.p. 4 hours before glucose load
Protocol: as §1
Freely fed animals were divided into weight-matched groups (n=8) and administered, by intraperitoneal injection, saline vehicle (0.9% NaCl) or saline in combination with each peptide (25 nmol/kg body weight). Food was then immediately withdrawn and 4 hours later all mice received an intraperitoneal injection of glucose alone (18 mmol/kg body weight). Blood samples were collected immediately prior to (t=0) and 15, 30 and 60 min post glucose injection. Whole blood was used to measure glucose values using an Acensia CONTOUR Microfill Blood Glucose Meter and Acensia MICROFILL test strips (Bayer Healthcare, UK).

[1] = biological target: Dipeptidyl peptidase-4 (DPP-4) (Homo sapiens, UniProt P27487); settings: pH 7.8
Protocol: Dipeptidyl peptidase-4 (DPP-4) was used to determine the degradation properties and identify any degradation products. Each peptide (30 μg) was incubated at 37° C. DPP-4 with 455 μl 50 mM triethanolamine-HCl (TEA) pH 7.8 buffer, and the reaction was stopped with 5 μl 10% (v/v) TFA. Time 0, 15, 30, 60, 120, 240 and 480 minutes degradation profiles were measured and HPLC was carried out to identify the degradation pattern and degradation products.

[2] = Incubation in the presence of murine plasma (MALDI-ToF MS, ESI MS); settings: 37° C., 50 mM TEA-HCl pH 7.8, up to 24 hours
Protocol: MALDI-ToF Mass Spectrometry: Following solid phase extraction, samples for each degradation time-point were subsequently mixed with α-cyano-4-hydroxycinnamic acid and applied to a Voyager-DE BioSpectrometry Workstation and mass-to-charge (m/z) ratio verses peak intensity recorded.
ESI Mass Spectrometry: Samples for each degradation time-point were applied to the ESI Ion-trap MS/MS utilizing a mass-to-charge range (m/z) of 0-2000. Resulting mass spectra were analyzed with the turbo sequest algorithm and degradation fragments sequenced against a fasta database containing the native xenin sequence.

Dipeptidyl peptidase-4 (DPP-4), sequence (P27487 whole entry, species assumed): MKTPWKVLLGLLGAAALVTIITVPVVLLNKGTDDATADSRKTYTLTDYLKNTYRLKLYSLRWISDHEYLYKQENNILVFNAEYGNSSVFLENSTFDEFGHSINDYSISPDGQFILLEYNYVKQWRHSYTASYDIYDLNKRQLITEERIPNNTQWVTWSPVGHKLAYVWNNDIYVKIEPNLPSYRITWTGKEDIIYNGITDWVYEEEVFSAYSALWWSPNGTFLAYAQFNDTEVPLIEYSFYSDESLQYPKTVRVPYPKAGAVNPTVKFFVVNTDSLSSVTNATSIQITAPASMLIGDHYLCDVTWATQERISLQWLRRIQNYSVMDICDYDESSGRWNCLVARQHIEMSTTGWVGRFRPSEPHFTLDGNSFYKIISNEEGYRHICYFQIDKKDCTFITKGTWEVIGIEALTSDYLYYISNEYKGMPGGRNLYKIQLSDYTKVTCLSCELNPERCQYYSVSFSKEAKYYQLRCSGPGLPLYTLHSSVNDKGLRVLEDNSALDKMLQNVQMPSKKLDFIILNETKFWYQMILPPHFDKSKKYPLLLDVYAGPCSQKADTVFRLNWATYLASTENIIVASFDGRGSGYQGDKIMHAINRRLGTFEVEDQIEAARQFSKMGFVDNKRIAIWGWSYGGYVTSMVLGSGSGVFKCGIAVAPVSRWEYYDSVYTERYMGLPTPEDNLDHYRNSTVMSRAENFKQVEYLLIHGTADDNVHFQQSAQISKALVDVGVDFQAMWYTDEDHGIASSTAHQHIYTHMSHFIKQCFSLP

| degradation in murine plasma [2] | Substance | insulin secretion compared to glucose alone, FIG. 1b experiment (BRIN-BD11 cells) | insulin secretion, peptide alone (BRIN-BD11 cells; 20 min, 10^-12 to 10^-6 M, FIG. 1a/1e) | insulin production compared to glucose alone, concentrations with significant effect (BRIN-BD11 cells; peptide alone, FIG. 1a/1e) | plasma glucose AUC vs glucose alone (high fat fed mice; 0-60 min) | plasma glucose excursion vs glucose alone (high fat fed mice; 0-60 min, FIG. 2a) | plasma insulin response vs glucose alone (high fat fed mice; FIG. 2b/2f) | effect on plasma glucose when administered 4 hours previously (high-fat fed mice) | degradation by DPP-IV [1] |
| --- | --- | --- | --- | --- | --- | --- | --- | --- | --- |
|  | (D-Ala^2)GIP: YAEGTFISDYSIAMDKIHQQDFVNWLLAQKGKKNDWKHNITQ, alanine at position 2 is a D-amino acid (Y[dA]EGTFISDYSIAMDKIHQQDFVNWLLAQKGKKNDWKHNITQ) | significantly stimulated insulin secretion in a concentration-dependent manner |  |  |  |  |  |  |  |
|  | MLTKFETKSARVKGLSFHPKRPWIL-OH [native xenin] | significantly stimulated insulin secretion in a concentration-dependent manner | stimulated insulin secretion in a concentration-dependent manner | significantly enhanced insulin production at concentrations of 10^−8 and 10^−6 M | failed to reach overall significance | not significantly different to animals receiving glucose alone | not significantly different to animals receiving glucose alone | did not elicit any significant effects on plasma glucose | completely resistant to degradation by DPP-IV |
| stable in the presence of murine plasma | MLTQFETQSAQVQGLSFHPQQPWIL [xenin-Gln] |  |  |  |  |  |  |  |  |
